From patent publication US8722849B2, “Polypeptides” (Novo Nordisk A/S, priority 2011, dated 2014)
Starred links: 1 amine or outer side, 2 acyl side, 3 side chain; linkers in the order of their positions; H or OH if unused. Positions of bridges follow the written chain, without caps; N, C: chain ends. Residues, ends and D or L forms follow the SMILES beside them. *: point of attachment. C20 diacid = O=C(O)CCCCCCCCCCCCCCCCCCC(=O)*; γGlu = O=C(O)[C@H](CCC(=O)[*:2])N[*:1]

Assays:
[1] = biological target: T1, rat calcitonin (a) receptor (Rattus norvegicus, UniProt P32214); test: Assay (II)b functional cAMP FlashPlate assay, rat calcitonin receptor; type: cell-based; details: Table 11; read-out: CTa receptor rat EC50
T1 construct: expressed in transfected cells; host or cells: BHK tk'ts 13
T1 sequence (P32214 25-479 isoform P32214-2 limits assumed): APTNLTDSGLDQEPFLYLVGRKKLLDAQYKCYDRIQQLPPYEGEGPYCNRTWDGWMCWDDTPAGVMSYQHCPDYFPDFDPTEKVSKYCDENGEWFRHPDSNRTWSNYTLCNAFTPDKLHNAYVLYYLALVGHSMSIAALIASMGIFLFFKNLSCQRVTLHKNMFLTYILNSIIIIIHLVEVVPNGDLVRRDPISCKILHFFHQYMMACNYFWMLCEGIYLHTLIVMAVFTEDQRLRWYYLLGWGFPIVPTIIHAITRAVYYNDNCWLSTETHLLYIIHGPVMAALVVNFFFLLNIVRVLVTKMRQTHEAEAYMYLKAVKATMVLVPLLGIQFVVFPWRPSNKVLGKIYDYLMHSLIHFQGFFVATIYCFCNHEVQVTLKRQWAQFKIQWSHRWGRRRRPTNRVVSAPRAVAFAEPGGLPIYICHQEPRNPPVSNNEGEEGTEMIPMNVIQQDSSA
Method in brief: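 BHK tk'ts 13 cells transiently transfected with rat calcitonin(a) receptor, alone or with rat RAMP3 (amylin 3(a)), were stimulated 24 hours later with sample for 30 min in buffer containing IBMX. cAMP measured by competitive radioactive FlashPlate assay, scintillation read after 3 h detection incubation.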

[2] = Assay (III) ThT fibrillation assay for physical stability; type: physicochemical
Method in brief: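 Freshly prepared formulations, pH-adjusted, with 1 μM ThT; four or eight replicates incubated at 37 °C under 960 rpm orbital shaking. Fluorescence (ex 444/em 485 nm) read every 20 min; […]. Peptide concentration measured by RP-HPLC before and after the run.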

| Compound | EC50 [1] | ThT pH 4.0 lag time ([2]; Table 8) | ThT pH 4.0 lag time ([2]; Table 9) | ThT pH 4.0 lag time ([2]; ThT fibrillation assay) | ThT pH 4.0 lag time (h) ([2]; ThT fibrillation assay) |
| --- | --- | --- | --- | --- | --- |
| CC[C@H](C)[C@H](NC(=O)[C@@H]1CCCN1C(=O)CNC(=O)[C@H](Cc1ccccc1)NC(=O)[C@H](CC(N)=O)NC(=O)[C@H](CC(N)=O)NC(=O)[C@H](CO)NC(=O)[C@H](CO)NC(=O)[C@H](Cc1c[nH]cn1)NC(=O)[C@H](Cc1c[nH]cn1)NC(=O)[C@H](CC(C)C)NC(=O)[C@H](Cc1ccccc1)NC(=O)[C@H](CCC(=O)O)NC(=O)[C@H](C)NC(=O)[C@H](CC(C)C)NC(=O)[C@H](CCCNC(=N)N)NC(=O)[C@H](CCC(N)=O)NC(=O)[C@@H](NC(=O)[C@H](C)NC(=O)[C@@H]1CSSC[C@H](NC(=O)[C@H](CCCNC(=N)N)NC(=O)CNC(=O)CC[C@H](NC(=O)CCCCCCCCCCCCCCCCCCC(=O)O)C(=O)O)C(=O)N[C@@H](CC(N)=O)C(=O)N[C@@H]([C@@H](C)O)C(=O)N[C@@H](C)C(=O)N[C@@H]([C@@H](C)O)C(=O)N1)[C@@H](C)O)C(=O)N[C@@H](CC(C)C)C(=O)N1CCC[C@H]1C(=O)N1CCC[C@H]1C(=O)N[C@H](C(=O)N[C@@H](CC(N)=O)C(=O)N[C@H](C(=O)NCC(=O)N[C@@H](CO)C(=O)N[C@@H](CC(N)=O)C(=O)N[C@H](C(=O)N1CCC[C@H]1C(N)=O)[C@@H](C)O)C(C)C)[C@@H](C)O [Example 101, N-alpha-[(S)-4-Carboxy-4-(19-carboxynonadecanoylamino)butyryl]-Gly-[Arg1,Glu14,His17,Pro37]-pramlintide] ({C20 diacid-γGlu}-GRCNTATCATQRLAEFLHHSSNNFGPILPPTNVGSNTP-NH2; disulfide 3-8 (inferred)) | 0.044 nM | >45 h | >45 h | >45 h | >45 h |
| CC[C@H](C)[C@H](NC(=O)[C@@H]1CCCN1C(=O)CNC(=O)[C@H](Cc1ccccc1)NC(=O)[C@H](CC(N)=O)NC(=O)[C@H](CC(N)=O)NC(=O)[C@H](CO)NC(=O)[C@H](CO)NC(=O)[C@H](Cc1c[nH]cn1)NC(=O)[C@H](Cc1c[nH]cn1)NC(=O)[C@H](CC(C)C)NC(=O)[C@H](Cc1ccccc1)NC(=O)[C@H](CCC(=O)O)NC(=O)[C@H](C)NC(=O)[C@H](CC(C)C)NC(=O)[C@H](CCCNC(=N)N)NC(=O)[C@H](CCC(N)=O)NC(=O)[C@@H](NC(=O)[C@H](C)NC(=O)[C@@H]1CSSC[C@H](NC(=O)[C@H](Cc2c[nH]cn2)NC(=O)[C@H](Cc2c[nH]cn2)NC(=O)[C@H](Cc2c[nH]cn2)NC(=O)CC[C@H](NC(=O)CCCCCCCCCCCCCCCCCCC(=O)O)C(=O)O)C(=O)N[C@@H](Cc2c[nH]cn2)C(=O)N[C@@H]([C@@H](C)O)C(=O)N[C@@H](C)C(=O)N[C@@H]([C@@H](C)O)C(=O)N1)[C@@H](C)O)C(=O)N[C@@H](CC(C)C)C(=O)N1CCC[C@H]1C(=O)N1CCC[C@H]1C(=O)N[C@H](C(=O)N[C@@H](CC(N)=O)C(=O)N[C@H](C(=O)NCC(=O)N[C@@H](CO)C(=O)N[C@@H](Cc1c[nH]cn1)C(=O)N[C@H](C(=O)N[C@@H](Cc1ccc(O)cc1)C(N)=O)[C@@H](C)O)C(C)C)[C@@H](C)O [Example 32, N-alpha-[(S)-4-Carboxy-4-(19-carboxynonadecanoylamino)butyryl]-His-His-[His1,His3,Glu14,His17,His35]-pramlintide] ({C20 diacid-γGlu}-HHHCHTATCATQRLAEFLHHSSNNFGPILPPTNVGSHTY-NH2; disulfide 4-9 (inferred)) | 4.87 nM |  |  | >45 h | >45 h |
| CC[C@H](C)[C@H](NC(=O)[C@@H]1CCCN1C(=O)CNC(=O)[C@H](Cc1ccccc1)NC(=O)[C@H](CC(N)=O)NC(=O)[C@H](CC(N)=O)NC(=O)[C@H](CO)NC(=O)[C@H](CO)NC(=O)[C@H](Cc1c[nH]cn1)NC(=O)[C@H](Cc1c[nH]cn1)NC(=O)[C@H](CC(C)C)NC(=O)[C@H](Cc1ccccc1)NC(=O)[C@H](CCC(=O)O)NC(=O)[C@H](C)NC(=O)[C@H](CC(C)C)NC(=O)[C@H](CCCNC(=N)N)NC(=O)[C@H](CCC(N)=O)NC(=O)[C@@H](NC(=O)[C@H](C)NC(=O)[C@@H]1CSSC[C@H](NC(=O)[C@H](Cc2c[nH]cn2)NC(=O)[C@H](Cc2c[nH]cn2)NC(=O)[C@H](Cc2c[nH]cn2)NC(=O)CC[C@H](NC(=O)CCCCCCCCCCCCCCCCCCC(=O)O)C(=O)O)C(=O)N[C@@H](CC(N)=O)C(=O)N[C@@H]([C@@H](C)O)C(=O)N[C@@H](C)C(=O)N[C@@H]([C@@H](C)O)C(=O)N1)[C@@H](C)O)C(=O)N[C@@H](CC(C)C)C(=O)N1CCC[C@H]1C(=O)N1CCC[C@H]1C(=O)N[C@H](C(=O)N[C@@H](CC(N)=O)C(=O)N[C@H](C(=O)NCC(=O)N[C@@H](CO)C(=O)N[C@@H](CCCNC(=N)N)C(=O)N[C@H](C(=O)N[C@@H](Cc1ccc(O)cc1)C(N)=O)[C@@H](C)O)C(C)C)[C@@H](C)O [Example 21, N-alpha-[(S)-4-Carboxy-4-(19-carboxynonadecanoylamino)butyryl]-His-His-[His1,Glu14,His17,Arg35]-pramlintide] ({C20 diacid-γGlu}-HHHCNTATCATQRLAEFLHHSSNNFGPILPPTNVGSRTY-NH2; disulfide 4-9 (inferred)) | 1.34 nM |  |  |  | 1 h |
| CC[C@H](C)[C@H](NC(=O)[C@@H]1CCCN1C(=O)CNC(=O)[C@H](Cc1ccccc1)NC(=O)[C@H](CC(N)=O)NC(=O)[C@H](CC(N)=O)NC(=O)[C@H](CO)NC(=O)[C@H](CO)NC(=O)[C@H](Cc1c[nH]cn1)NC(=O)[C@H](Cc1c[nH]cn1)NC(=O)[C@H](CC(C)C)NC(=O)[C@H](Cc1ccccc1)NC(=O)[C@H](CCC(=O)O)NC(=O)[C@H](C)NC(=O)[C@H](CC(C)C)NC(=O)[C@H](CCCNC(=N)N)NC(=O)[C@H](CCC(N)=O)NC(=O)[C@@H](NC(=O)[C@H](C)NC(=O)[C@@H]1CSSC[C@H](NC(=O)[C@H](CCCCN)NC(=O)[C@H](Cc2c[nH]cn2)NC(=O)CC[C@H](NC(=O)CCCCCCCCCCCCCCCCCCC(=O)O)C(=O)O)C(=O)N[C@@H](CC(N)=O)C(=O)N[C@@H]([C@@H](C)O)C(=O)N[C@@H](C)C(=O)N[C@@H]([C@@H](C)O)C(=O)N1)[C@@H](C)O)C(=O)N[C@@H](CC(C)C)C(=O)N1CCC[C@H]1C(=O)N1CCC[C@H]1C(=O)N[C@H](C(=O)N[C@@H](CC(N)=O)C(=O)N[C@H](C(=O)NCC(=O)N[C@@H](CO)C(=O)N[C@@H](Cc1c[nH]cn1)C(=O)N[C@H](C(=O)N[C@@H](Cc1ccc(O)cc1)C(N)=O)[C@@H](C)O)C(C)C)[C@@H](C)O [Example 66, N-alpha-[(S)-4-Carboxy-4-(19-carboxynonadecanoylamino)butyryl]-His-[Glu14,His17,His35]-pramlintide] ({C20 diacid-γGlu}-HKCNTATCATQRLAEFLHHSSNNFGPILPPTNVGSHTY-NH2; disulfide 3-8 (inferred); C-terminus assumed) | 0.656 nM |  |  | >45 h | >45 h |
